Key:
HIV-1(IIIB) = conditions: cited from earlier work
[1] = system: P388 lymphocytic leukemia; conditions: P388 cells; cited from earlier work
KB = KB cells; cited from earlier work
M14 = assay: in vitro anti-cancer screen, Sulforhodamine B method; type: cell-based, human; conditions: MELANOMA: M14; 48 h incubation; read-out: GROWTH INHIBITION (GI 50)
Procedure: (§1) Each test compound was screened against a battery of cell lines representing eight different types of cancers. In a typical procedure, 1×10^4 cells were seeded into each well of 96 well plate in 100 μL volume of RPMI 1640 medium containing antibiotics and 10% FCS.
(§2) The plates were incubated at 37° C. in presence of CO2. After 24 h, test compounds were evaluated at five 10 fold dilutions ranging from 100 to 0.01 μM. To each test well 100 μL of test compound solution was added and medium with vehicle was added to control wells and the plates were further incubated. After 48 h of incubation, plates were terminated by Sulforhodamine B method.
(§3) The optical density which is proportional to protein mass, is then-read by automated spectrophotometric plate reader at a wavelength of 515 nm.

A498 = assay: as above; type: cell-based, human; conditions: RENAL: A498; 48 h incubation; read-out: GROWTH INHIBITION (GI 50)
Procedure: as §1, §2, §3

DU145 = assay: as above; type: cell-based, human; conditions: PROSTATE: DU145; 48 h incubation; read-out: GROWTH INHIBITION (GI 50)
Procedure: as §1, §2, §3

SKOV-3 = assay: as above; type: cell-based, human; conditions: OVARIAN: SKOV-3; 48 h incubation; read-out: GROWTH INHIBITION (GI 50)
Procedure: as §1, §2, §3

U251 = assay: as above; type: cell-based, human; conditions: CNS: U251; 48 h incubation; read-out: GROWTH INHIBITION (GI 50)
Procedure: as §1, §2, §3

H522 = assay: as above; type: cell-based, human; conditions: LUNG: H522; 48 h incubation; read-out: GROWTH INHIBITION (GI 50)
Procedure: as §1, §2, §3

MCF-7/ADR = assay: as above; type: cell-based, human; conditions: BREAST: MCF-7/ADR; 48 h incubation; read-out: GROWTH INHIBITION (GI 50)
Procedure: as §1, §2, §3

SW-620 = assay: as above; type: cell-based, human; conditions: COLON: SW-620; 48 h incubation; read-out: GROWTH INHIBITION (GI 50)
Procedure: as §1, §2, §3

Human lymphocytes = assay: Lymphocyte proliferation, tritiated thymidine incorporation; type: cell-based; conditions: Concentration 1 μM; human lymphocytes with Phytohemagglutitin A
Procedure: Human lymphocytes were isolated from whole blood by using Ficoll Hypaque Plus (Amersham). On day one, 1 million lymphocytes were seeded into each well of 96 well plate in 100 μL volume of RPMI 1640 medium containing 10% FCS and Phytohemagglutitin A at 1 μg/well concentration. Plates were incubated at 37° C. in CO2 incubator for 24 h. Test compounds at various concentrations were added to test wells and only medium with vehicle was added to control wells. After 48 h of incubation […] of tritiated thymidine was added to each well. After 24 h of thymidine addition the cells were harvested and the incorporated radioactivity was determined. Stimulation Index (SI) was calculated using the formula, [formula]
A^T=Average CPM of treated wells,
A^C=Average CPM of control wells.

HIV-1/MN = assay: Anti HIV activity, P24 antigen in infected PM-1 cells; type: cell-based; conditions: Concentration 1 μM; PM-1 cells infected with HIV-1/MN, 96 h; P24 antigen corrected by MTT
Procedure: Human CD4+T cell line PM-1 used in the assay was cultured in RPMI-1640 medium containing 10% Fetal bovine serum, 2 g/L sodium bicarbonate, 100,000 units/L Penicillin-G and 100 mg/L streptomycin. Healthy PM-1 cells were plated on the first day in a 96 well plate at […]. After 24 h HIV-1/MN was added to the culture and incubated for 2 h for infection. Cells were washed twice with PBS to remove the virus in the culture. Different concentrations of DRF compounds ranging from 10^−4 to 10^−8M were added to the culture and incubated for 96 h. The viability of cells was then assessed by standard MTT assay and the viral antigen P24 levels were estimated by ELSA method. Based on the MTT assay values the P 24 antigen values were corrected. All the samples were tested in triplicates and the average was used for calculations. AZT was used as standard compound for comparision.

With “dehydroandrographolide succinic acid monoester [DASM]” as the compound, how does the “minimal concentration inhibitory to HIV-1(IIIB)” value (HIV-1(IIIB)) read?
The value was 1.6 to 3.1 µg/mL.

What does the source list for `C=C1CC[C@@H]2[C@](C)(CO)[C@H](O)CC[C@@]2(C)[C@@H]1C/C=C1/C(=O)OC[C@H]1O` [Andrographolide]?
cytotoxic activity [1]: potent cytotoxic activity; cytotoxic activity (KB): potent cytotoxic activity

With `C=C1CCC2C(C)(COC(C)=O)C(OC(C)=O)CCC2(C)C1CC(NCc1ccccc1)C1=CCOC1=O` (stereo not shown) [Example 1, 3,19-Diacetyl-12-(N-benzylamino)-14-deoxy andrographolide] as the compound, how does the GI50 (M14) read?
The GI50 was 5 µM.

What about the GI50 (A498) of the same compound?
Its GI50 is 5 µM.

And the GI50 (DU145)?
The GI50 was 7 µM.

And the GI50 (SKOV-3)?
Its GI50 is 0.3 µM.

And the GI50 (U251)?
Its GI50 is 0.2 µM.

What about the GI50 (H522) of the same compound?
Its GI50 is 9 µM.

What about the GI50 (MCF-7/ADR) of the same compound?
The GI50 was 8 µM.

What about the GI50 (SW-620) of the same compound?
The GI50 was 4 µM.

What about the “Stimulation Index (SI)” value (Human lymphocytes) of the same compound?
The value was 123.

And the “Percentage Inhibition” value (HIV-1/MN)?
Its value is 73.94.
